A word on the IC50: it is the concentration at which inhibition is half-maximal.

We go through 23 compounds from patent US9193689B2, “3-aryl-5-substituted-isoquinolin-1-one compounds and their therapeutic use” (INSTITUTE OF CANCER RESEARCH: ROYAL CANCER HOSPITAL (THE), priority 2012, dated 2015).

Like-named read-outs stand apart in the source and are kept apart here. A value given as a limit tells only on which side of the number the result lay.

Assay [1] deals with Wnt activity in DLD1-Wnt-Luc cells. Nature of the assay: Wnt-Luciferase Reporter Assay.
The target in assay [2] is TNKS1 (Homo sapiens, UniProt O95271). Briefly: TNKS1/PARP Biochemical Assay (TNKS1).
Setting [3] is: read-out: Wnt IC50, DLD1-Wnt-Luc cells.

With `CN1CCN(c2ccc(-c3cc4c(Cl)cccc4c(=O)[nH]3)cn2)CC1` [IQ-002], the IC50 in assay [1] (read-out: Wnt IC50) came to 179 nM; in assay [2], 39 nM.

In the case of `O=c1[nH]c(-c2cnc(N3CCNCC3)c(F)c2)cc2c(Cl)cccc12` [IQ-024], the IC50 in assay [1] (setting [3]) was below 5000 nM; in assay [2], below 500 nM.

Turning to `Cc1cccc2c(=O)[nH]c(-c3cnc(N4CCN(C)CC4)nc3)cc12` [IQ-025, 5-Methyl-3-[2-(4-methyl-piperazin-1-yl)-pyrimidin-5-yl]-2H-isoquinolin-1-one], the IC50 was determined as 62 nM in assay [1] (read-out: Wnt IC50) and 17 nM in assay [2].

For `CN(C)Cc1ccc(-c2cc3c(F)cccc3c(=O)[nH]2)cc1` [IQ-032], in assay [1] (setting [3]), the IC50 was below 5000 nM.

As for `CN(C)Cc1ccc(-c2cc3c(Br)cccc3c(=O)[nH]2)cc1` [IQ-033], the IC50 was below 5000 nM in assay [1] (setting [3]) and below 50 nM in assay [2].

For the compound `CN1CCN(Cc2ccc(-c3cc4c(C5CC5)cccc4c(=O)[nH]3)cc2)CC1` [IQ-046], the IC50 was below 5000 nM in assay [1] (setting [3]) and below 500 nM in assay [2].

As to `O=c1[nH]c(-c2ccc(CN3CCNCC3)cc2)cc2c(F)cccc12` [IQ-070], the IC50 in assay [1] (setting [3]) was below 5000 nM; in assay [2], below 50 nM.

For the compound `Cc1cc(F)cc2c(=O)[nH]c(-c3ccc(CN4CCN(C)CC4)cc3)cc12` [IQ-080], the IC50 in assay [1] (read-out: Wnt IC50) was found to be 42 nM; in assay [2] it was 29 nM.

In the case of `CCc1cccc2c(=O)[nH]c(-c3ccc(CN4CCNCC4)cc3)cc12` [IQ-081], the IC50 in assay [1] (setting [3]) was below 5000 nM; in assay [2] it was below 50 nM.

Regarding `Cc1cccc2c(=O)[nH]c(-c3ccc(C(=O)N(C)CC4CCNCC4)cc3)cc12` [IQ-093, N-Methyl-4-(5-methyl-1-oxo-1,2-dihydro-isoquinolin-3-yl)-N-piperidin-4-ylmethyl-benzamide], the IC50 in assay [1] (setting [3]) is below 5000 nM; in assay [2], below 20 nM.

For `CN(CC1CCNCC1)C(=O)c1ccc(-c2cc3c(Cl)cccc3c(=O)[nH]2)cc1` [IQ-094], the results for the IC50 in assay [1] (setting [3]) and in assay [2] were below 5000 nM and below 50 nM, respectively.

With `CN(C)C1CCN(C(=O)c2ccc(-c3cc4c(Cl)cccc4c(=O)[nH]3)cc2)CC1` [IQ-103], the IC50 in assay [1] (setting [3]) was below 5000 nM; in assay [2], below 500 nM.

For `O=c1[nH]c(-c2ccc(S(=O)(=O)N3CCNCC3)cc2)cc2c(Cl)cccc12` [IQ-124], the IC50 in assay [1] (setting [3]) was below 5000 nM; in assay [2], below 50 nM.

`CN(C)CCOc1ccc(-c2cc3c(Cl)cccc3c(=O)[nH]2)cc1` [IQ-128]: the values for the IC50 in assay [1] (setting [3]) and in assay [2] were below 5000 nM and below 500 nM, respectively.

Consider `CCc1cccc2c(=O)[nH]c(-c3ccc(CN4CCN(C(=O)OC(C)(C)C)CC4)cc3)cc12` [IQ-151, 4-[4-(5-Ethyl-1-oxo-1,2-dihydro-isoquinolin-3-yl)-benzyl]-piperazine-1-carboxylic acid tert-butyl ester], for which the IC50 in assay [1] (setting [3]) is below 5000 nM.

On to `CN1CCN(C(=O)c2ccc(-c3cc4c(F)ccc(F)c4c(=O)[nH]3)cc2)CC1` [IQ-226], for which, in assay [2], the IC50 was below 50 nM.

In the case of `CN1CCN(C(=O)c2ccc(-c3cc4c(F)cc(F)cc4c(=O)[nH]3)cc2)CC1` [IQ-227], in assay [2], the IC50 was below 20 nM.

For `O=C(c1ccc(-c2cc3c(F)cc(F)cc3c(=O)[nH]2)cc1)N1CCN(CCO)CC1` [IQ-228, 5,7-Difluoro-3-{4-[4-(2-hydroxy-ethyl)-piperazine-1-carbonyl]-phenyl}-2H-isoquinolin-1-one], the IC50 in assay [2] was below 50 nM.

`O=C(c1ncc(-c2cc3c(F)ccc(F)c3c(=O)[nH]2)cn1)N1CCN(CC2CC2)CC1` [IQ-229] yielded an IC50 in assay [2] below 500 nM.

As for `CN1CCN(Cc2ccc(-c3cc4c(C#CCO)cccc4c(=O)[nH]3)cc2)CC1` [IQ-231], the IC50 in assay [2] is below 50 nM.

`COCC#Cc1cccc2c(=O)[nH]c(-c3ccc(OCCN(C)C)cc3)cc12` [IQ-234] displayed an IC50 in assay [2] below 500 nM.

In turn, `CN(C)CCOc1ccc(-c2cc3c(C#CCCO)cccc3c(=O)[nH]2)cc1` [IQ-236, 3-[4-(2-Dimethylaminoethoxy)phenyl]-5-(4-hydroxybut-1-ynyl)-2H-isoquinolin-1-one] yielded an IC50 in assay [2] below 500 nM.

Consider `CN(C)Cc1ccc(-c2cc3ccccc3c(=O)[nH]2)cc1` [REF-4, reference compound], for which, in assay [1] (read-out: Wnt IC50), the IC50 was above 10000 nM.
